According to ChEMBL document CHEMBL1255346 (2008):
In brackets after ≈: the same amount, converted by molar mass.

Legend:
Escherichia coli [1] = assay: microbe, parasite or virus in culture; conditions: isolate E1
Description: (§1) Antibacterial activity against beta-lactamase KPC-2 producing Escherichia coli isolate E1 by agar dilution method

Escherichia coli [2] = assay: Antibacterial activity against Escherichia coli EC600 transconjugant harboring beta-lactamase KPC-2 by agar dilution method; assay type: functional
Klebsiella pneumoniae [3] = assay: Antibacterial activity against beta-lactamase KPC-2 producing Klebsiella pneumoniae isolate K10 by agar dilution method; assay type: functional
Serratia marcescens [4] = assay: Antibacterial activity against beta-lactamase KPC-2 producing Serratia marcescens isolate S1 to S21 by agar dilution method
Klebsiella pneumoniae [5] = assay: Antibacterial activity against beta-lactamase KPC-2 producing Klebsiella pneumoniae isolate K1 to K9 by agar dilution method; assay type: functional
Escherichia coli [6] = assay: Antibacterial activity against Escherichia coli EC600 by agar dilution method; assay type: functional
Escherichia coli [7] = assay: Antibacterial activity against Escherichia coli EC600 transconjugant harboring beta-lactamase KPC-2 in presence of Sulbactam by agar dilution method
Serratia marcescens [8] = assay: Antibacterial activity against beta-lactamase KPC-2 producing Serratia marcescens isolate S1 to S21 in presence of Sulbactam by agar dilution method; assay type: functional
Klebsiella pneumoniae [9] = assay: Antibacterial activity against beta-lactamase KPC-2 producing Klebsiella pneumoniae isolate K1 to K9 in presence of Sulbactam by agar dilution method; assay type: functional
Klebsiella pneumoniae [10] = assay: Antibacterial activity against beta-lactamase KPC-2 producing Klebsiella pneumoniae isolate K10 in presence of Sulbactam by agar dilution method; assay type: functional
Escherichia coli [11] = assay: Antibacterial activity against Escherichia coli EC600 in presence of Sulbactam by agar dilution method; assay type: functional
Escherichia coli [12] = assay: microbe, parasite or virus in culture; conditions: isolate E1; remark: listed apart in the source
Description: Antibacterial activity against beta-lactamase KPC-2 producing Escherichia coli isolate E1 in presence of Sulbactam by agar dilution method

Escherichia coli [13] = assay: Antibacterial activity against beta-lactamase KPC-2 producing Escherichia coli isolate E1 in presence of Tazobactam by agar dilution method; assay type: functional
Serratia marcescens [14] = assay: Antibacterial activity against beta-lactamase KPC-2 producing Serratia marcescens isolate S1 to S21 in presence of Tazobactam by agar dilution method; assay type: functional
Klebsiella pneumoniae [15] = assay: Antibacterial activity against beta-lactamase KPC-2 producing Klebsiella pneumoniae isolate K1 to K9 in presence of Tazobactam by agar dilution method; assay type: functional
Escherichia coli [16] = assay: Antibacterial activity against Escherichia coli EC600 transconjugant harboring beta-lactamase KPC-2 in presence of Tazobactam by agar dilution method; assay type: functional
Escherichia coli [17] = assay: Antibacterial activity against Escherichia coli EC600 in presence of Tazobactam by agar dilution method; assay type: functional
Klebsiella pneumoniae [18] = assay: Antibacterial activity against beta-lactamase KPC-2 producing Klebsiella pneumoniae isolate K10 in presence of Tazobactam by agar dilution method; assay type: functional
Escherichia coli [19] = conditions: isolate E1
Description: as §1

Row | Compound | MIC (Escherichia coli [1]) | MIC (Escherichia coli [2]) | MIC (Klebsiella pneumoniae [3]) | MIC (Serratia marcescens [4]) | MIC (Klebsiella pneumoniae [5]) | MIC (Escherichia coli [6]) | also measured
1 | C[C@@H](O)[C@H]1C(=O)N2C(C(=O)O)=C(S[C@@H]3CN[C@H](C(=O)Nc4cccc(C(=O)O)c4)C3)[C@H](C)[C@H]12 | 8 µg/mL (≈ 16.8 µM) | 4 µg/mL (≈ 8.41 µM) | > 256 µg/mL | 4 µg/mL (≈ 8.41 µM) | 8 µg/mL (≈ 16.8 µM) | ≤ 0.125 µg/mL | 
2 | CO/N=C(\C(=O)N[C@@H]1C(=O)N2C(C(=O)[O-])=C(C[N+]3(C)CCCC3)CS[C@H]12)c1csc(N)n1 | 64 µg/mL (≈ 133 µM) | 8 µg/mL (≈ 16.6 µM) | 256 µg/mL (≈ 533 µM) | 8 µg/mL (≈ 16.6 µM) |  | ≤ 0.125 µg/mL | 
3 | CC1(C)S[C@@H]2[C@H](NC(=O)[C@H](N)c3ccccc3)C(=O)N2[C@H]1C(=O)O [AMPICILLIN] | > 256 µg/mL | > 256 µg/mL | > 256 µg/mL | > 256 µg/mL | > 256 µg/mL | 8 µg/mL (≈ 22.9 µM) | 
4 | C[C@H]1[C@H](NC(=O)/C(=N\OC(C)(C)C(=O)O)c2csc(N)n2)C(=O)N1S(=O)(=O)O [AZTREONAM] | 256 µg/mL (≈ 588 µM) | 128 µg/mL (≈ 294 µM) | > 256 µg/mL | 128 µg/mL (≈ 294 µM) | 256 µg/mL (≈ 588 µM) | ≤ 0.125 µg/mL | 
5 | CCN1CCN(C(=O)N[C@@H](C(=O)N[C@@H]2C(=O)N3C(C(=O)O)=C(CSc4nnnn4C)CS[C@H]23)c2ccc(O)cc2)C(=O)C1=O [CEFOPERAZONE] |  |  |  |  |  |  | MIC (Escherichia coli [7]): 32 µg/mL; MIC (Serratia marcescens [8]): 32 µg/mL; MIC (Klebsiella pneumoniae [9]): 128 µg/mL; MIC (Klebsiella pneumoniae [10]): > 256 µg/mL; MIC (Escherichia coli [11]): ≤ 0.125 µg/mL; MIC (Escherichia coli [12]): 128 µg/mL (≈ 198 µM)
6 | CO/N=C(\C(=O)N[C@@H]1C(=O)N2C(C(=O)O)=C(COC(C)=O)CS[C@H]12)c1csc(N)n1 [CEFOTAXIME] | 256 µg/mL (≈ 562 µM) | 8 µg/mL (≈ 17.6 µM) | 256 µg/mL (≈ 562 µM) | 16 µg/mL (≈ 35.1 µM) | 128 µg/mL (≈ 281 µM) | ≤ 0.125 µg/mL | 
7 | CO[C@@]1(NC(=O)Cc2cccs2)C(=O)N2C(C(=O)O)=C(COC(N)=O)CS[C@@H]21 [CEFOXITIN] | 32 µg/mL (≈ 74.9 µM) | 16 µg/mL (≈ 37.4 µM) | 256 µg/mL (≈ 599 µM) | 16 µg/mL (≈ 37.4 µM) | 8 µg/mL (≈ 18.7 µM) | 8 µg/mL (≈ 18.7 µM) | 
8 | CC(C)(O/N=C(\C(=O)N[C@@H]1C(=O)N2C(C(=O)[O-])=C(C[n+]3ccccc3)CS[C@H]12)c1csc(N)n1)C(=O)O [CEFTAZIDIME] | 64 µg/mL (≈ 117 µM) | 16 µg/mL (≈ 29.3 µM) | 256 µg/mL (≈ 468 µM) | 8 µg/mL (≈ 14.6 µM) | 64 µg/mL (≈ 117 µM) | 0.25 µg/mL (≈ 0.457 µM) | 
9 | CO/N=C(\C(=O)N[C@@H]1C(=O)N2C(C(=O)O)=C(CSc3nc(=O)c(O)nn3C)CS[C@H]12)c1csc(N)n1 [CEFTRIAXONE] | > 256 µg/mL | 32 µg/mL (≈ 57.7 µM) | > 256 µg/mL | 32 µg/mL (≈ 57.7 µM) | 256 µg/mL (≈ 462 µM) | ≤ 0.125 µg/mL | 
10 | O=C(O)c1cn(C2CC2)c2cc(N3CCNCC3)c(F)cc2c1=O [CIPROFLOXACIN] | > 32 µg/mL |  |  |  |  |  | 
11 | C[C@@H](O)[C@H]1C(=O)N2C(C(=O)O)=C(SCCNC=N)C[C@H]12 [IMIPENEM ANHYDROUS] | 2 µg/mL (≈ 6.68 µM) | 1 µg/mL (≈ 3.34 µM) | 128 µg/mL (≈ 428 µM) | 4 µg/mL (≈ 13.4 µM) | 2 µg/mL (≈ 6.68 µM) | ≤ 0.125 µg/mL | 
12 | C[C@@H](O)[C@H]1C(=O)N2C(C(=O)O)=C(S[C@@H]3CN[C@H](C(=O)N(C)C)C3)[C@H](C)[C@H]12 [MEROPENEM] | 2 µg/mL (≈ 5.22 µM) | 2 µg/mL (≈ 5.22 µM) | 256 µg/mL (≈ 668 µM) | 2 µg/mL (≈ 5.22 µM) |  | ≤ 0.125 µg/mL | 
13 | CCN1CCN(C(=O)N[C@@H](C(=O)N[C@@H]2C(=O)N3[C@@H]2SC(C)(C)[C@@H]3C(=O)O)c2ccccc2)C(=O)C1=O [PIPERACILLIN] | > 256 µg/mL | 256 µg/mL (≈ 495 µM) | > 256 µg/mL | 256 µg/mL (≈ 495 µM) |  | 1 µg/mL (≈ 1.93 µM) | MIC (Escherichia coli [13]): 256 µg/mL; MIC (Serratia marcescens [14]): 128 µg/mL; MIC (Klebsiella pneumoniae [15]): > 256 µg/mL; MIC (Escherichia coli [16]): 256 µg/mL; MIC (Escherichia coli [17]): 1 µg/mL; MIC (Klebsiella pneumoniae [18]): > 256 µg/mL
14 | GENTAMICIN |  | 0.25 µg/mL | > 256 µg/mL |  | > 256 µg/mL | 0.25 µg/mL | MIC (Escherichia coli [19]): 64 µg/mL
